# Key:
# [1] = test system: 36 selected tumor cell lines; assay: ATP-Lite cell viability assay; format: cell-based, human; settings: 72 h
# [2] = test system: Mcl-1; settings: displacement of fluorochrome-conjugated BH3 Bid peptide; cited from earlier work
# [3] = target: T1, Bcl-B (Homo sapiens, UniProt Q9HD36); settings: displacement of fluorochrome-conjugated BH3 Bid peptide; ABT-737; cited from earlier work
# T1 sequence (Q9HD36 1-204): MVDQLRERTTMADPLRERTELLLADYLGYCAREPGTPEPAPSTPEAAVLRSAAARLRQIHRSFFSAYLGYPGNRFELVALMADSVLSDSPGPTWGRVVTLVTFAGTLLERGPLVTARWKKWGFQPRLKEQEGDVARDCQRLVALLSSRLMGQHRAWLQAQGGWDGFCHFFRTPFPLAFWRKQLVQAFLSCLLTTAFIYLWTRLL
# [4] = test system: Bfl-1; settings: displacement of fluorochrome-conjugated BH3 Bid peptide; cited from earlier work
structure (smiles),measurement,setting,value
CN(C)CC[C@H](CSc1ccccc1)Nc1ccc(S(=O)(=O)NC(=O)c2ccc(N3CCN(Cc4ccccc4-c4ccc(Cl)cc4)CC3)cc2)cc1[N+](=O)[O-] [ABT-737],cell killing effect in six of the studied cell lines,[1]; concentration range tested 0.1-30 μM,no effect
same,cytotoxic activity against leukemia/lymphoma lines,"[1]; leukemia/lymphoma lines, ATP-Lite",potent cytotoxic activity
same,"IC50 values, Mcl-1",[2],not active
same,"IC50 values, Bcl-B",[3],not active
same,"IC50 values, Bfl-1",[4],not active

# Source: PMC3032312 (Cell Death & Disease, 2010)
